Our source for the IC50 values is patent publication US9533987B2, “Heterocyclic derivates” (KALVISTA PHARMACEUTICALS LIMITED, priority 2013, dated 2017).

One may read the IC50 as the concentration at which inhibition is half-maximal.

What all share (format): biochemical
In one experiment the target is Human plasma kallikrein (Homo sapiens (Human), UniProt P03952). Kind of experiment: Determination of the IC50 for plasma kallikrein (fluorogenic substrate H-DPro-Phe-Arg-AFC). To be noted: 37° C., read-out: IC50 (human PKaI). As to the method: Determination of the IC50 for Plasma Kallikrein
Sequence of Human plasma kallikrein (P03952 391-638): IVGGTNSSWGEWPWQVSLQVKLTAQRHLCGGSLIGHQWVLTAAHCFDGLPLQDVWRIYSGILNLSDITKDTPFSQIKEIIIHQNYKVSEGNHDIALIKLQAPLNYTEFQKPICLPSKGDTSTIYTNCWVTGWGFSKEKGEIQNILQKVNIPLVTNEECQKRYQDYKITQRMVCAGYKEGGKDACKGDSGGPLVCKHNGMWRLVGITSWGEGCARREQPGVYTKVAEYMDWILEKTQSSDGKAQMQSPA
Sequence of Human plasma kallikrein (P03952 20-390 partner): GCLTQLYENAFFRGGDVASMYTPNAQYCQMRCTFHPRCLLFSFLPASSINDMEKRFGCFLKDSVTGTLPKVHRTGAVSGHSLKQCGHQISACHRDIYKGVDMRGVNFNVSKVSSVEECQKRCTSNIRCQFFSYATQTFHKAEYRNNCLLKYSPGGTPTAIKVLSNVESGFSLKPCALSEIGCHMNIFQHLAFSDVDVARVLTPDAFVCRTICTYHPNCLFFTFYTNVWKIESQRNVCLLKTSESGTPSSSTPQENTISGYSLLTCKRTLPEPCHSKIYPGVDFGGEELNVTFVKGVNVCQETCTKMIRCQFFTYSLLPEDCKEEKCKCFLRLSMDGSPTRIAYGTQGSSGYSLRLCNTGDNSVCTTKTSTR
Human plasma kallikrein (Protogen) was incubated at 37° C. with the fluorogenic substrate H-DPro-Phe-Arg-AFC and various concentrations of the test compound. Residual enzyme activity (initial rate of reaction) was determined by measuring the change in […] at 410 nm and the IC50 value for the test compound was determined.

The next experiment deals with Human KLK1 (Homo sapiens (Human), UniProt P06870). Kind of experiment: Determination of the IC50 for KLK1 (fluorogenic substrate H-DVal-Leu-Arg-AFC). To be noted: 37° C. As to the method: Determination of the IC50 for KLK1
Sequence of Human KLK1 (P06870 25-262): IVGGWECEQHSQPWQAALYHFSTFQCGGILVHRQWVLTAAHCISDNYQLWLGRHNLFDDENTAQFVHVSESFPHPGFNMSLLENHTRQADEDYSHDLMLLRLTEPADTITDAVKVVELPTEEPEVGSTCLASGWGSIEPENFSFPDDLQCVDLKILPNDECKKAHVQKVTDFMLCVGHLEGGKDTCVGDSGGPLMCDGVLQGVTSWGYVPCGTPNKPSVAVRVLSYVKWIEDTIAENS
Human KLK1 (Callbiochem) was incubated at 37° C. with the fluorogenic substrate H-DVal-Leu-Arg-AFC and various concentrations of the test compound. Residual enzyme activity (initial rate of reaction) was determined by measuring the change in […] at 410 nm and the IC50 value for the test compound was determined.

The target in a further experiment is Factor XIIa (Homo sapiens (Human), UniProt P00748). Kind of experiment: Determination of enzyme selectivity, Factor XIIa. The conditions noted are these: substrate at Km concentration. As to the method: Determination of Enzyme Selectivity
Sequence of Factor XIIa (P00748 373-615): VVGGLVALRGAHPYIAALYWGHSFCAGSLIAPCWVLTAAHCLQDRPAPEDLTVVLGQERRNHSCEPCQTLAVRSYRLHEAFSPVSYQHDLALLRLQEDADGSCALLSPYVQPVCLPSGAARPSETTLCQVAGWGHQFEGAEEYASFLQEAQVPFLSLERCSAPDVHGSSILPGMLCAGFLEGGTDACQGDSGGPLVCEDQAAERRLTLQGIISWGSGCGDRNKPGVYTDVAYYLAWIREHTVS
Human serine protease enzymes plasmin, thrombin, trypsin, Factor Xa and Factor XIIa were assayed for enzymatic activity using an appropriate fluorogenic substrate. Protease activity was measured by monitoring the accumulation of liberated fluorescence from the substrate over 5 minutes. The linear rate of fluorescence increase per minute was expressed as percentage (%) activity. The Km for the cleavage of each substrate was determined by standard transformation of the Michaelis-Menten equation.

Consider `Cc1cnn(Cc2ccc(Cn3nc(C)c(C(=O)NCc4ccc5c(N)nccc5c4)c3C)cc2)c1` [Example 34, 3,5-Dimethyl-1-[4-(4-methyl-pyrazol-1-ylmethyl)-benzyl]-1H-pyrazole-4-carboxylic acid (1-amino-isoquinolin-6-ylmethyl)-amide], for which the values for the IC50 on Human plasma kallikrein, against Human KLK1 and against Factor XIIa were 0.142 µM, 18.2 µM and above 40000 nM, respectively.
On to `Cc1cnn(Cc2ccc(Cn3cc(C(=O)NCc4ccc5c(N)nccc5c4)c(-c4ccccc4)n3)cc2)c1` [Example 35, 1-[4-(4-Methyl-pyrazol-1-ylmethyl)-benzyl]-3-phenyl-1H-pyrazole-4-carboxylic acid (1-amino-isoquinolin-6-ylmethyl)-amide], for which the IC50 at Human plasma kallikrein is 0.00368 µM; at Human KLK1, above 10 µM; at Factor XIIa it was above 10000 nM.
Taken in the same sequence, the figures for `Cc1cnn(Cc2ccc(Cn3cc(C(=O)NCc4ccc5c(N)nccc5c4)c(N)n3)cc2)c1` [Example 37, 3-Amino-1-[4-(4-methyl-pyrazol-1-ylmethyl)-benzyl]-1H-pyrazole-4-carboxylic acid (1-amino-isoquinolin-6-ylmethyl)-amide] were 0.00067 µM, 3.53 µM and above 10000 nM.
On the same counts, the results for `COCc1nn(Cc2ccc(Cn3cc(C)cn3)cc2)cc1C(=O)NCc1ccc2c(N)nccc2c1` [Example 38, 3-Methoxymethyl-1-[4-(4-methyl-pyrazol-1-ylmethyl)-benzyl]-1H-pyrazole-4-carboxylic acid (1-amino-isoquinolin-6-ylmethyl)-amide] are 0.00127 µM, 7.84 µM and above 10000 nM.
Consider `Cc1cnn(Cc2ccc(Cn3cc(C(=O)NCc4ccc5c(N)nccc5c4)c(C(F)F)n3)cc2)c1` [Example 39, 3-Difluoromethyl-1-[4-(4-methyl-pyrazol-1-ylmethyl)-benzyl]-1H-pyrazole-4-carboxylic acid (1-amino-isoquinolin-6-ylmethyl)-amide], for which the IC50 on Human plasma kallikrein is 0.00168 µM; against Human KLK1 it was 8.05 µM; against Factor XIIa, above 10000 nM.
`Cc1cc(C(=O)NCc2ccc3c(N)nccc3c2)c(C)n1Cc1ccc(Cn2ccccc2=O)cc1` [Example 44, 2,5-Dimethyl-1-[4-(2-oxo-2H-pyridin-1-ylmethyl)-benzyl]-1H-pyrrole-3-carboxylic acid (1-amino-isoquinolin-6-ylmethyl)-amide]: the values for the IC50 on Human plasma kallikrein, against Human KLK1 and against Factor XIIa were 0.0039 µM, 7.09 µM and above 10000 nM, respectively.
Taken in the same sequence, the figures for `Nc1nccc2cc(CNC(=O)c3cnn(CCc4ccc5c(c4)OCCO5)c3)ccc12` [Example 45, 1-[2-(2,3-Dihydro-benzo[1,4]dioxin-6-yl)-ethyl]-1H-pyrazole-4-carboxylic acid (1-amino-isoquinolin-6-ylmethyl)-amide] were 3.06 µM, 18.6 µM and above 40000 nM.
Taken in the same sequence, the figures for `Nc1nccc2cc(CNC(=O)c3cnn(Cc4cccc(Oc5ccccc5)n4)c3)ccc12` [Example 47, 1-(6-Phenoxy-pyridin-2-ylmethyl)-1H-pyrazole-4-carboxylic acid (1-amino-isoquinolin-6-ylmethyl)-amide] were 2.03 µM, 15.8 µM and above 40000 nM.
`Nc1nccc2cc(CNC(=O)c3cnn(Cc4cccc(Oc5ncccc5F)c4)c3)ccc12` [Example 48, 1-[3-(3-Fluoro-pyridin-2-yloxy)-benzyl]-1H-pyrazole-4-carboxylic acid (1-amino-isoquinolin-6-ylmethyl)-amide]: the IC50 on Human plasma kallikrein was 0.82 µM; against Human KLK1, 4.32 µM; at Factor XIIa, above 40000 nM.
On the same counts, the results for `Nc1nccc2cc(CNC(=O)c3cnn(Cc4ccc(Oc5ccccn5)cc4)c3)ccc12` [Example 49, 1-[4-(Pyridin-2-yloxy)-benzyl]-1H-pyrazole-4-carboxylic acid (1-amino-isoquinolin-6-ylmethyl)-amide] are 0.186 µM, 8.09 µM and above 40000 nM.
Taken in the same sequence, the figures for `Nc1nccc2cc(CNC(=O)c3cnn(Cc4ccc(COc5cccc(F)n5)cc4)c3)ccc12` [Example 50, 1-[4-(6-Fluoro-pyridin-2-yloxymethyl)-benzyl]-1H-pyrazole-4-carboxylic acid (1-amino-isoquinolin-6-ylmethyl)-amide] were 0.203 µM, above 40 µM and above 40000 nM.
With `Nc1nccc2cc(CNC(=O)c3cnn(Cc4ccnc(N5CCCC5)c4)c3C(F)(F)F)ccc12` [Example 51, 1-(2-Pyrrolidin-1-yl-pyridin-4-ylmethyl)-5-trifluoromethyl-1H-pyrazole-4-carboxylic acid (1-amino-isoquinolin-6-ylmethyl)-amide], the values for the half-inhibitory concentration (IC50) on Human plasma kallikrein, at Human KLK1 and at Factor XIIa were 0.576 µM, 11.7 µM and above 40000 nM, respectively.
In the case of `Nc1nccc2cc(CNC(=O)c3cnn(Cc4cc5cc(OC(F)(F)F)ccc5[nH]4)c3)ccc12` [Example 52, 1-(5-Trifluoromethoxy-1H-indol-2-ylmethyl)-1H-pyrazole-4-carboxylic acid (1-amino-isoquinolin-6-ylmethyl)-amide], the IC50 on Human plasma kallikrein was 0.3 µM; at Human KLK1, above 40 µM; against Factor XIIa it was above 40000 nM.
On the same counts, the results for `Nc1nccc2cc(CNC(=O)c3cn(Cc4ccnc(N5CCCC5)c4)nc3C(F)(F)F)ccc12` [Example 54, 1-(2-Pyrrolidin-1-yl-pyridin-4-ylmethyl)-3-trifluoromethyl-1H-pyrazole-4-carboxylic acid (1-amino-isoquinolin-6-ylmethyl)-amide] are 0.0467 µM, 18.2 µM and above 4000 nM.
On the same counts, the results for `CCOc1ccc(Cn2cc(C(=O)NCc3ccc4c(N)nccc4c3)c(C(F)(F)F)n2)cn1` [Example 55, 1-(6-Ethoxy-pyridin-3-ylmethyl)-3-trifluoromethyl-1H-pyrazole-4-carboxylic acid (1-amino-isoquinolin-6-ylmethyl)-amide] are 0.0792 µM, 3.81 µM and above 10000 nM.
On the same counts, the results for `Nc1nccc2cc(CNC(=O)c3cn(Cc4ccnc(N5CCC(F)(F)C5)c4)nc3C(F)(F)F)ccc12` [Example 56, 1-[2-(3,3-Difluoro-pyrrolidin-1-yl)-pyridin-4-ylmethyl]-3-trifluoromethyl-1H-pyrazole-4-carboxylic acid (1-amino-isoquinolin-6-ylmethyl)-amide] are 0.0718 µM, above 10 µM and above 10000 nM.
Turning to `Nc1nccc2cc(CNC(=O)c3cn(Cc4ccc(N5CCC(F)(F)C5)nc4)nc3C(F)(F)F)ccc12` [Example 57, 1-[6-(3,3-Difluoro-pyrrolidin-1-yl)-pyridin-3-ylmethyl]-3-trifluoromethyl-1H-pyrazole-4-carboxylic acid (1-amino-isoquinolin-6-ylmethyl)-amide], the IC50 on Human plasma kallikrein is 0.0149 µM; against Human KLK1 it was above 10 µM; against Factor XIIa it was above 10000 nM.
`C[C@H]1CCN(c2ccc(Cn3cc(C(=O)NCc4ccc5c(N)nccc5c4)c(C(F)(F)F)n3)cn2)C1` [Example 59, 1-[6-((S)-3-Methyl-pyrrolidin-1-yl)-pyridin-3-ylmethyl]-3-trifluoromethyl-1H-pyrazole-4-carboxylic acid (1-amino-isoquinolin-6-ylmethyl)-amide]: the values for the IC50 at Human plasma kallikrein, against Human KLK1 and against Factor XIIa were 0.00584 µM, 4 µM and above 1000 nM, respectively.
On to `Nc1nccc2cc(CNC(=O)c3cn(Cc4ccc(N5CC[C@H](F)C5)nc4)nc3C(F)(F)F)ccc12` [Example 60, 1-[6-((S)-3-Fluoro-pyrrolidin-1-yl)-pyridin-3-ylmethyl]-3-trifluoromethyl-1H-pyrazole-4-carboxylic acid (1-amino-isoquinolin-6-ylmethyl)-amide], for which the IC50 on Human plasma kallikrein is 0.00961 µM; against Human KLK1, 9.57 µM; at Factor XIIa, above 10000 nM.
In the case of `Nc1nccc2cc(CNC(=O)c3cn(Cc4ccc(N5CC[C@@H](F)C5)nc4)nc3C(F)(F)F)ccc12` [Example 61, 1-[6-((R)-3-Fluoro-pyrrolidin-1-yl)-pyridin-3-ylmethyl]-3-trifluoromethyl-1H-pyrazole-4-carboxylic acid (1-amino-isoquinolin-6-ylmethyl)-amide], the IC50 is 0.0181 µM at Human plasma kallikrein, 7.66 µM on Human KLK1 and above 10000 nM against Factor XIIa.
Regarding `C[C@H]1CCCN1c1ccc(Cn2cc(C(=O)NCc3ccc4c(N)nccc4c3)c(C(F)(F)F)n2)cn1` [Example 62, 1-[6-((S)-2-Methyl-pyrrolidin-1-yl)-pyridin-3-ylmethyl]-3-trifluoromethyl-1H-pyrazole-4-carboxylic acid (1-amino-isoquinolin-6-ylmethyl)-amide], the IC50 at Human plasma kallikrein is 0.0136 µM; against Human KLK1 it was above 10 µM; on Factor XIIa it was above 10000 nM.
Consider `C[C@@H]1CCCN1c1ccc(Cn2cc(C(=O)NCc3ccc4c(N)nccc4c3)c(C(F)(F)F)n2)cn1` [Example 63, 1-[6-((R)-2-Methyl-pyrrolidin-1-yl)-pyridin-3-ylmethyl]-3-trifluoromethyl-1H-pyrazole-4-carboxylic acid (1-amino-isoquinolin-6-ylmethyl)-amide], for which the IC50 on Human plasma kallikrein is 0.0123 µM; on Human KLK1, 5.7 µM; on Factor XIIa, above 10000 nM.
